Data as given in patent US20160374944A1, “COMPOSITIONS AND METHODS FOR TREATING AND PREVENTING CANCER BY TARGETING AND INHIBITING CANCER STEM CELLS” (priority 2011, published 2016).

Columns and labels:
[1] = tested on: Pancreatic CSCs; assay: caspase-3/7 activity; assay type: cell-based, human
Description: (§1) (A and B) Induction of apoptosis and activation of caspase-3/-7. Pancreatic CSCs were treated with rottlerin (0-2 μM) for 48 h, and apoptosis and caspase-3/-7 activity were measured by […] and colorometric assay, respectively. […] (C) Pancreatic CSCs were treated with rottlerin (0-1 μM) for 48 h, and the expression of Bcl-2, XIAP and Survivin was measured by qRT-PCR and normalized to GAPDH.
(§2) (A) Regulation of caspase-3/7 activity by EGCG. CSCs were treated with EGCG (0-60 μM) for 24 h, and caspase-3/7 activity was measured as per manufacturer's instructions. […] (B) Regulation of apoptosis by EGCG. CSCs were treated with EGCG (0-60 μM) for 48 h, and apoptosis was measured by TUNEL assay. […] (C) Regulation of apoptosis-related proteins. Pancreatic CSCs were treated with EGCG (0-60 μM) for 36 h. Real time PCR (q-RT-PCR) was performed to examine the expression of Bcl-2, survivin, XIAP, and GAPDH.

[2] = tested on: Pancreatic CSCs; assay: gene expression by qRT-PCR; assay type: cell-based, human
Description: FIG. 19 is a graph showing the regulation by rottlerin of cMyc, Nanog, Oct-4, and Sox-2 in pancreatic CSCs. Pancreatic CSCs were treated with rottlerin (0-1 μM) for 24 h. The expression of Nanog, Sox-2 and cMyc was measured by qRT-PCR and normalized to GAPDH.
(A) Pancreatic CSCs were treated with rottlerin (0-1 μM) for 24 h. The expression of Patched-1, Smo and Gli-2 was measured by qRT-PCR. […] (B) Pancreatic CSCs were transduced with Gli-responsive GFP/firefly luciferase viral particles (pGreen Fire1-Gli with EF1, System Biosciences). After transduction, culture medium was replaced and CSCs were treated with rottlerin (0-2 μM) for 24 h. Gli-responsive reporter activity was measured using a luciferase assay (Promega Corporation).
as §1
(A and B) Pancreatic CSCs were treated with rottlerin (0-1 μM) for 24 h. The expression of Zeb-1 and Slug was measured by the qRT-PCR and normalized to GAPDH. […] (C) In vitro Matrigel invasion assay. CSCs were plated onto the Matrigel-coated membrane in the top chamber of the transwell and treated with rottlerin (0-2 μM) for 48 h. Cells invaded to the lower chamber were fixed with methanol, stained with crystal violet and photo micrographed.
as §2
[…] At the end of incubation period, cells were harvested and the expression of Nanog, Sox-2, c-Myc and Oct-4 was measured by the q-RT-PCR. […] (B) Nanog shRNA enhances the inhibitory effects of EGCG on CSC's spheroid viability. Pancreatic CSCs were transduced with either scrambled shRNA or Nanog shRNA expressing lentiviral vector (pLKO.1), and cell lysates were collected and western blot analysis was performed using anti-Nanog antibody (data not shown). CSC/scrambled and CSC/Nanog shRNA were seeded as described above and treated with EGCG (0-60 μM). After 7 days, spheroids were collected and cell suspensions were prepared and viable cells were counted by trypan blue assay.
FIG. 40A and FIG. 40C are graphs and photographs showing the inhibition of components of sonic hedgehog pathway, Gli transcription and nuclear translocation by EGCG. (A) Inhibition of components of sonic hedgehog pathway and Gli transcription. Pancreatic CSCs were treated with EGCG (0-60 μM) for 36 h. The expression of Smothened (Smo), patched 1 (PTCH1), patched 2 (PTCH2), was measured by q-RT-PCR. […] (B) Inhibition of Gli1 and Gli2 expression and Gli transcription. Pancreatic CSCs were treated with EGCG (0-60 μM) for 36 h. The expression of Gli1 and Gli2 was measured by q-RT-PCR. Gli reporter activity. CSCs were transduced with Gli-responsive GFP/firefly luciferase viral particles (pGreen Fire1-Gli with EF1, System Biosciences). After transduction, culture medium was replaced and CSCs were treated with EGCG (0-60 μM) for 24 h. Gli-responsive reporter activity was measured by luciferase assay (Promega Corporation). […] (C) EGCG inhibits nuclear translocation of Gli1 and Gli2. Pancreatic CSCs were treated with or without EGCG (40 or 60 μM) for 24 h. At the end of incubation period, CSCs were fixed with paraformaldehyde, permeabilized with titron X100, and blocked with 5% normal goat serum. […]

[3] = qRT-PCR, rottlerin 0-1 μM, 24 h
[4] = qRT-PCR, rottlerin 0-1 μM, 48 h

O=C(O[C@@H]1Cc2c(O)cc(O)cc2O[C@@H]1c1cc(O)c(O)c(O)c1)c1cc(O)c(O)c(O)c1 [EGCG, epigallocatechin gallate]
caspase-3/7 activity ([1]; EGCG 0-60 μM, 24 h): induced caspase-3/7 activity and apoptosis in pancreatic CSCs in a dose-dependent manner | expression of Bcl-2 ([2]; q-RT-PCR, EGCG 0-60 μM, 36 h): inhibited the expression | expression of Gli1 ([2]; q-RT-PCR, EGCG 0-60 μM, 36 h): inhibited the expression | expression of Gli2 ([2]; q-RT-PCR, EGCG 0-60 μM, 36 h): inhibited the expression | expression of Nanog ([2]; q-RT-PCR, EGCG 0-60 μM, 36 h): inhibited the expression | expression of Oct-4 ([2]; q-RT-PCR, EGCG 0-60 μM, 36 h): inhibited the expression | expression of Patched-1 ([2]; q-RT-PCR, EGCG 0-60 μM, 36 h): inhibited the expression | expression of Patched-2 ([2]; q-RT-PCR, EGCG 0-60 μM, 36 h): inhibited the expression | expression of Sox-2 ([2]; q-RT-PCR, EGCG 0-60 μM, 36 h): no effect on the expression | expression of XIAP ([2]; q-RT-PCR, EGCG 0-60 μM, 36 h): inhibited the expression | expression of c-Myc ([2]; q-RT-PCR, EGCG 0-60 μM, 36 h): inhibited the expression | expression of smoothened (SMO) ([2]; q-RT-PCR, EGCG 0-60 μM, 36 h): inhibited the expression | expression of survivin ([2]; q-RT-PCR, EGCG 0-60 μM, 36 h): inhibited the expression | expression of Slug ([2]; q-RT-PCR, EGCG 0-60 μM, 48 h): inhibited the expression | expression of Snail ([2]; q-RT-PCR, EGCG 0-60 μM, 48 h): inhibited the expression | expression of ZEB1 ([2]; q-RT-PCR, EGCG 0-60 μM, 48 h): inhibited the expression

CC(=O)c1c(O)c(C)c(O)c(Cc2c(O)c3c(c(C(=O)/C=C/c4ccccc4)c2O)OC(C)(C)C=C3)c1O [rottlerin]
caspase-3/-7 activity ([1]; rottlerin 0-2 μM, 48 h, colorometric assay): induced | expression of Gli2 [2, 3]: inhibited the expression | expression of Nanog [2, 3]: inhibited the expression | expression of Patched-1 [2, 3]: inhibited the expression | expression of Slug [2, 3]: inhibited the expression | expression of Smo [2, 3]: inhibited the expression | expression of Sox-2 [2, 3]: inhibited the expression | expression of Zeb-1 [2, 3]: inhibited the expression | expression of cMyc [2, 3]: inhibited the expression | expression of Bcl-2 [2, 4]: inhibited the expression | expression of XIAP [2, 4]: inhibited the expression | expression of survivin [2, 4]: inhibited the expression
